Test results taken from ChEMBL document CHEMBL1201862, “PubChem BioAssay data set” (2004).
Calls of active or inactive are those of the source.

Key:
[1] = molecular target: Kallikrein-7 (Homo sapiens, UniProt P49862); assay: Fluorescence Intensity-based biochemical primary high throughput dose response assay to identify activators of kallikrein-7 (K7) zymogen.
[2] = IC50 of Artemis nuclease activity blockers – biochemical, fluorescence intensity, dose response (AID 720701); type: functional;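 note: Artemis endonuclease enzyme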
[3] = tested on: Vero; assay: viability of Vero cells under compound – cytotoxicity control for flavivirus capping enzyme inhibitors (AID 588742); type: functional; settings: Chlorocebus sabaeus
[4] = tested on: H4; assay: Luminescence Cell-Based Dose Response HTS to Identify Activators of 5'UTR Stem-Loop Driven Prion Protein mRNA Translation in H4 Neuroglioblastoma Cells. [Related pubchem assays: 1829 (Project Summary), 1814 (Primary HTS)]; type: functional; settings: Homo sapiens
[5] = Luminescence Cell-Based Dose Response HTS to Identify Activators of Luciferase Translation or Activity in H4 […] Cells. [Related pubchem assays: 1829 (Project Summary), 1814 (Primary HTS)]; type: functional
[6] = Luminescence Cell-Based Dose Confirmation HTS to Identify Activators of 5'UTR Stem-Loop Driven Alpha-Synuclein mRNA Translation in H4 Neuroglioblastoma Cells. [Related pubchem assays: 1829 (Project Summary), 1814 (Primary HTS)]; type: functional
[7] = growth inhibition of replicating M. tuberculosis, dose response, counter-screen, dry powder, IC90 (AID 651617); type: functional; settings: Mycobacterium tuberculosis
[8] = inhibitors of non-replicating M. tuberculosis, dose response, luciferase, dry powder (AID 651620); type: functional; settings: Mycobacterium tuberculosis
[9] = inhibitors of non-replicating M. tuberculosis, dose response, luciferase, dry powder (AID 651619); type: functional; settings: Mycobacterium tuberculosis
[10] = cervical cancer cell viability loss – HeLa, 24 h, plate reader, powder samples, set 3, cytotoxicity control, dose response (AID 651864); type: functional, cell-based
[11] = molecular target: T1, Sentrin-specific protease 8 (Homo sapiens, UniProt Q96LD8); type: functional;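 note: luminescence read-out of SENP8 inhibition, dose-response confirmation following an ultra-high-throughput screen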
T1 sequence (Q96LD8 whole entry): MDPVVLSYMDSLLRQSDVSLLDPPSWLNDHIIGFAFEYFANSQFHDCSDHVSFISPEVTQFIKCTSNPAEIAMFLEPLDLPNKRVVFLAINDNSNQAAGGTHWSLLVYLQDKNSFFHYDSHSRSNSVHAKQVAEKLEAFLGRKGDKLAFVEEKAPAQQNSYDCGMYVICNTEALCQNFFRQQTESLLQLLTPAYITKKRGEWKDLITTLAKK

[12] = molecular target: T2, Caspase-3 (Homo sapiens, UniProt P42574); type: functional;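 note: Dose-response selectivity test against caspase-3 for candidate inhibitors of sentrin-specific proteases (SENPs)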
T2 sequence (P42574 whole entry): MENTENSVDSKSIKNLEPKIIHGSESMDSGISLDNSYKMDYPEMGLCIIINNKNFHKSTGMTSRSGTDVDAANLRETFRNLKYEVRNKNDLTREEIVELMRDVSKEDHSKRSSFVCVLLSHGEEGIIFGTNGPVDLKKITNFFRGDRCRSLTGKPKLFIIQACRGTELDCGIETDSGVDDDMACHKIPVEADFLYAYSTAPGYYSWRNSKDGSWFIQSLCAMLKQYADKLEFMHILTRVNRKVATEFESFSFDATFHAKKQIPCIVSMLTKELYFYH

[13] = molecular target: T3, Oxysterols receptor LXR-beta (Homo sapiens, UniProt P55055); assay: LXR agonists, Gal4 luciferase reporter, dose response, counter-screen for ssDAF-12 agonist project, cell-based, luminescence, HEK293, S. stercoralis campaign (AID 720737); type: functional; settings: read-out: IC50 (the source's name)
T3 sequence (P55055 whole entry): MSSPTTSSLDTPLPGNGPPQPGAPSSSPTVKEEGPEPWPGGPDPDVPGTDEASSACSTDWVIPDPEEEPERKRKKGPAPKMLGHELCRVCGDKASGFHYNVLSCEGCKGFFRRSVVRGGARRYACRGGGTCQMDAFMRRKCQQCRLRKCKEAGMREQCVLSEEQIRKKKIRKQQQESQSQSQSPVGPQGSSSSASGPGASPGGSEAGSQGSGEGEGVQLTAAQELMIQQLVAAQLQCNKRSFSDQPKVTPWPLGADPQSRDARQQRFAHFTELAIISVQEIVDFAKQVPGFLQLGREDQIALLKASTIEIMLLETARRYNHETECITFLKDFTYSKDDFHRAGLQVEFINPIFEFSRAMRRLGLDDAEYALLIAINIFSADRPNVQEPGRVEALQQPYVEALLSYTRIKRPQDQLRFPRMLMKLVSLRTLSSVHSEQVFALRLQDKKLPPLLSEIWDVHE

[14] = molecular target: T3, Oxysterols receptor LXR-beta; type: functional, cell-based
[15] = molecular target: T4, Sentrin-specific protease 7 (Homo sapiens, UniProt Q9BQF6); type: functional;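 note: Luminescence-based dose-response confirmation of ultra-high-throughput screening hits, measuring inhibition of SENP7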
T4 sequence (Q9BQF6 whole entry): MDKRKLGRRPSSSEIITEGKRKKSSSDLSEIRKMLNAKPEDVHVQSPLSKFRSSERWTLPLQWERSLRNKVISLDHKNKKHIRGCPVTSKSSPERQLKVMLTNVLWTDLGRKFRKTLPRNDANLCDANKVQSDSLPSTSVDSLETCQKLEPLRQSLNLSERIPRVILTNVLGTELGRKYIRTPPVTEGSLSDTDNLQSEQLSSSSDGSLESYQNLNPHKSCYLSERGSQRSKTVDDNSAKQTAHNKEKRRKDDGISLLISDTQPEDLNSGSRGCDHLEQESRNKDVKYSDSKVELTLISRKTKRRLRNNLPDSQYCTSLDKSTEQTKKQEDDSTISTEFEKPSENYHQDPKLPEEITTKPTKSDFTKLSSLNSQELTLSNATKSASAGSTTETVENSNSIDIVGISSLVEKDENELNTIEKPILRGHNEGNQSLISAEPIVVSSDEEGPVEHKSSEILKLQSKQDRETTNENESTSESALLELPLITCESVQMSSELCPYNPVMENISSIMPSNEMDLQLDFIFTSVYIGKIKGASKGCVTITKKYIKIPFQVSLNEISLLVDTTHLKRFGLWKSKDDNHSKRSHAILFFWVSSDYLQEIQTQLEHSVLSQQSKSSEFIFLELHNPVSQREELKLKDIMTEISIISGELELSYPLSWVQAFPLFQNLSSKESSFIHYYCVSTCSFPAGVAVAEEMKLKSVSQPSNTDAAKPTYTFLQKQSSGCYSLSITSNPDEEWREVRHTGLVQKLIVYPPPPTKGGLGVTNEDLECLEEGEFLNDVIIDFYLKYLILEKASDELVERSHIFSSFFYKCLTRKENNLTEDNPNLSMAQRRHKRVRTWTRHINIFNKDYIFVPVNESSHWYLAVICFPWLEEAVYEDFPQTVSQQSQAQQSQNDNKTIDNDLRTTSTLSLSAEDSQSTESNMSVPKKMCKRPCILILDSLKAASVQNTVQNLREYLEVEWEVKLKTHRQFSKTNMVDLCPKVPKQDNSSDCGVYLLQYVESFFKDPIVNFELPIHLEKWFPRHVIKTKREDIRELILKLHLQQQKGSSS

[16] = molecular target: T5, Sentrin-specific protease 6 (Homo sapiens, UniProt Q9GZR1); type: functional;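 note: Luminescence-based dose-response confirmatory assay of SENP6 inhibition, following up an ultra-high-throughput screen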
T5 sequence (Q9GZR1 whole entry): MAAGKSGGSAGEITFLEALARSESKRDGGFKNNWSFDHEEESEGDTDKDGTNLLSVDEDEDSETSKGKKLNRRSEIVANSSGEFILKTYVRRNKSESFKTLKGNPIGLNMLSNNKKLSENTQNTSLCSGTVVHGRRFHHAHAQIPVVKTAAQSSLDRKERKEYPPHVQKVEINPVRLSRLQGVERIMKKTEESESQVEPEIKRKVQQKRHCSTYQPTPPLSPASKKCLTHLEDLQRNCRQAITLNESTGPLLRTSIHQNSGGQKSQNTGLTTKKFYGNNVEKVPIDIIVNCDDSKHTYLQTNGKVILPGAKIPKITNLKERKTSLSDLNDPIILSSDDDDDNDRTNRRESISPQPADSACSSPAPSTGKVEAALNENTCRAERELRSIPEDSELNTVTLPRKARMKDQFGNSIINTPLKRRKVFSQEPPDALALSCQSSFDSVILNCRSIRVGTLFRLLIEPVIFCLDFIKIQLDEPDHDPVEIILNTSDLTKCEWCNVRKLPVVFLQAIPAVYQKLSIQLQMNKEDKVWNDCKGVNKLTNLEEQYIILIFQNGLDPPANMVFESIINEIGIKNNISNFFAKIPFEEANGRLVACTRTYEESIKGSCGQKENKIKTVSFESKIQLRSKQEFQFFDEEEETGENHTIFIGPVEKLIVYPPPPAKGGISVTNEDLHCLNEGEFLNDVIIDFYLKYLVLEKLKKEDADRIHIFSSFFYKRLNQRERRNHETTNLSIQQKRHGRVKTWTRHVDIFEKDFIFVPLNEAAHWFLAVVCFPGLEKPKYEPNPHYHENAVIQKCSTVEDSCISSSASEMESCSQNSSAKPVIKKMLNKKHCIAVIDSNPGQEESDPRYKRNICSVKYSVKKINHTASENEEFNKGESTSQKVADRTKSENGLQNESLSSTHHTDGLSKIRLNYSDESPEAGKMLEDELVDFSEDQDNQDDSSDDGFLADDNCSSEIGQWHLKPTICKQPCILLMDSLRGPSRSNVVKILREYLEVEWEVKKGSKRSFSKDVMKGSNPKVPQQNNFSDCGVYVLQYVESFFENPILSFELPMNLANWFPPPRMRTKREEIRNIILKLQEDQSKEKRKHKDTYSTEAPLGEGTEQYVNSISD

[17] = Luminescence-based cell-based high throughput dose response assay to identify activators of the DAF-12 from the parasite S. stercoralis (ssDAF-12).; type: functional
[18] = molecular target: 1-phosphatidylinositol 4,5-bisphosphate phosphodiesterase gamma-1 (Homo sapiens, UniProt P19174); assay: Counterscreen for inhibitors of phospholipase C isozymes (PLC-B3): Fluorescence-based biochemical high throughput dose response assay to identify inhibitors of phospholipase C isozymes (PLC-gamma1).
[19] = molecular target: Luciferin 4-monooxygenase (Photinus pyralis, UniProt P08659); assay: inhibition of purified Photinus pyralis luciferase – biochemical, luminescence, dose response (AID 1891)
[20] = molecular target: 1-phosphatidylinositol 4,5-bisphosphate phosphodiesterase beta-3 (Homo sapiens, UniProt Q01970); assay: Fluorescence-based biochemical high throughput dose response assay to identify inhibitors of phospholipase C isozymes (PLC-B3).
[21] = Luminescence Cell-Based Dose Confirmation HTS to Identify Inhibitors of Platelet Dense Granule Release. [Related pubchem assays: 1663 (Primary HTS), 1678 (Summary of Project)]; type: functional
[22] = inhibition of Env-driven cell fusion – HIV entry, plate reader, dry powder, dose response (AID 687023); type: functional, cell-based
[23] = viability loss in CEM21 cells – cell-based, plate reader, dry powder, cytotoxicity control, dose response (AID 687026); type: functional
[24] = cytotoxicity in MITF-independent A375 cells – cell-based, CellTiter-Glo luminescence, dry powder, set 9, counter-screen for MITF modulator project, dose response (AID 651591); type: functional; settings: A-375
[25] = melanocyte viability loss, MITF-dependent cells, cell-based, plate reader, dry powder, cytotoxicity control, dose response (AID 651920); type: functional
[26] = MITF: Counter assay: A375 proliferation Measured in Cell-Based System Using Plate Reader - 2084-03_Inhibitor_Dose_DryPowder_Activity_Set8.; type: functional; settings: A-375
[27] = inhibitors of TRPM1-promoter reporter in SK-MEL-5 – cell-based, luciferase, dry powder, set 9, MITF inhibitor project, dose response (AID 651588); type: functional
[28] = growth inhibition of MALME3 cells – cell-based, CellTiter-Glo luminescence, dry powder, set 5, orthogonal assay for MITF inhibitor project, dose response (AID 651584); type: functional; settings: MALME-3
[29] = growth inhibition of SK-MEL-5 melanoma cells – cell-based, CellTiter-Glo luminescence, dry powder, set 8, orthogonal assay for MITF inhibitor project, dose response (AID 651586); type: functional
[30] = MITF Orthogonal Assay: SK-MEL-5 CTG Assay Measured in Cell-Based System Using Plate Reader - 2084-02_Inhibitor_Dose_DryPowder_Activity_Set7.; type: functional
[31] = inhibitors of TRPM1-promoter reporter in SK-MEL-5 – cell-based, luciferase, dry powder, set 8, MITF inhibitor project, dose response (AID 624430); type: functional
[32] = MITF Orthogonal Assay: MALME3 CTG Assay Measured in Cell-Based System Using Plate Reader - 2084-04_Inhibitor_Dose_DryPowder_Activity_Set6.; type: functional; settings: MALME-3

Chain of 1-phosphatidylinositol 4,5-bisphosphate phosphodiesterase gamma-1 (P19174 whole entry): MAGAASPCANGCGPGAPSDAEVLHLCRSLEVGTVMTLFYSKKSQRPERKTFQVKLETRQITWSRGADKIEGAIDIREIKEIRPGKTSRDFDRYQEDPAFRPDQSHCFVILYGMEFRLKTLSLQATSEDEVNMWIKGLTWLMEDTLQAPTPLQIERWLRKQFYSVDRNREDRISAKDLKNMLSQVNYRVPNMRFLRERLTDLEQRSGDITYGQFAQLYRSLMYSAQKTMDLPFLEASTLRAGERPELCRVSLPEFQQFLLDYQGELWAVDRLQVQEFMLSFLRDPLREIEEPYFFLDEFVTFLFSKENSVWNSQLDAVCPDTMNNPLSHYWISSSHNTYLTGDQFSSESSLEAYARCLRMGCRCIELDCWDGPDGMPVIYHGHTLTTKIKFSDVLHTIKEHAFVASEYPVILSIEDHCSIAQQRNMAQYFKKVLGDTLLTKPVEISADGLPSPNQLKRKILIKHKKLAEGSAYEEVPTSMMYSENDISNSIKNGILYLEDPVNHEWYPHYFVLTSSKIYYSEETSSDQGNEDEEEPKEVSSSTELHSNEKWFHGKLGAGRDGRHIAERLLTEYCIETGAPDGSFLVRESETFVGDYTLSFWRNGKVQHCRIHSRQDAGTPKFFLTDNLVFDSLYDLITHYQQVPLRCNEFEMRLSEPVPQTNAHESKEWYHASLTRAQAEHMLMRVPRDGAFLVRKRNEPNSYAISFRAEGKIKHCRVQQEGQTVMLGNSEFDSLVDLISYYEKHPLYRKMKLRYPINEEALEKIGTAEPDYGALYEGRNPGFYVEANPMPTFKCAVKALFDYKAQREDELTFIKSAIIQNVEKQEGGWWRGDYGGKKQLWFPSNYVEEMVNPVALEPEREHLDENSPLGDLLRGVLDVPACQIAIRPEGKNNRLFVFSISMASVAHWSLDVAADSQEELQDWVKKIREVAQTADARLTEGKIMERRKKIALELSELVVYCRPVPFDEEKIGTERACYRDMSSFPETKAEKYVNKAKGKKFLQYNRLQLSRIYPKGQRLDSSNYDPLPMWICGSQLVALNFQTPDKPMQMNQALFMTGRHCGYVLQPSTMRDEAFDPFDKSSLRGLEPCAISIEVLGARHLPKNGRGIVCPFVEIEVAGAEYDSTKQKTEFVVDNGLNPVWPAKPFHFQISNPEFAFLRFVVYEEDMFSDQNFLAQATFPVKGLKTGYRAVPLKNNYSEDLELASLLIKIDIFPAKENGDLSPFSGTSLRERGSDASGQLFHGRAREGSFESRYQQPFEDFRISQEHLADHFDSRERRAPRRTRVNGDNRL
Chain of 1-phosphatidylinositol 4,5-bisphosphate phosphodiesterase beta-3 (Q01970 whole entry): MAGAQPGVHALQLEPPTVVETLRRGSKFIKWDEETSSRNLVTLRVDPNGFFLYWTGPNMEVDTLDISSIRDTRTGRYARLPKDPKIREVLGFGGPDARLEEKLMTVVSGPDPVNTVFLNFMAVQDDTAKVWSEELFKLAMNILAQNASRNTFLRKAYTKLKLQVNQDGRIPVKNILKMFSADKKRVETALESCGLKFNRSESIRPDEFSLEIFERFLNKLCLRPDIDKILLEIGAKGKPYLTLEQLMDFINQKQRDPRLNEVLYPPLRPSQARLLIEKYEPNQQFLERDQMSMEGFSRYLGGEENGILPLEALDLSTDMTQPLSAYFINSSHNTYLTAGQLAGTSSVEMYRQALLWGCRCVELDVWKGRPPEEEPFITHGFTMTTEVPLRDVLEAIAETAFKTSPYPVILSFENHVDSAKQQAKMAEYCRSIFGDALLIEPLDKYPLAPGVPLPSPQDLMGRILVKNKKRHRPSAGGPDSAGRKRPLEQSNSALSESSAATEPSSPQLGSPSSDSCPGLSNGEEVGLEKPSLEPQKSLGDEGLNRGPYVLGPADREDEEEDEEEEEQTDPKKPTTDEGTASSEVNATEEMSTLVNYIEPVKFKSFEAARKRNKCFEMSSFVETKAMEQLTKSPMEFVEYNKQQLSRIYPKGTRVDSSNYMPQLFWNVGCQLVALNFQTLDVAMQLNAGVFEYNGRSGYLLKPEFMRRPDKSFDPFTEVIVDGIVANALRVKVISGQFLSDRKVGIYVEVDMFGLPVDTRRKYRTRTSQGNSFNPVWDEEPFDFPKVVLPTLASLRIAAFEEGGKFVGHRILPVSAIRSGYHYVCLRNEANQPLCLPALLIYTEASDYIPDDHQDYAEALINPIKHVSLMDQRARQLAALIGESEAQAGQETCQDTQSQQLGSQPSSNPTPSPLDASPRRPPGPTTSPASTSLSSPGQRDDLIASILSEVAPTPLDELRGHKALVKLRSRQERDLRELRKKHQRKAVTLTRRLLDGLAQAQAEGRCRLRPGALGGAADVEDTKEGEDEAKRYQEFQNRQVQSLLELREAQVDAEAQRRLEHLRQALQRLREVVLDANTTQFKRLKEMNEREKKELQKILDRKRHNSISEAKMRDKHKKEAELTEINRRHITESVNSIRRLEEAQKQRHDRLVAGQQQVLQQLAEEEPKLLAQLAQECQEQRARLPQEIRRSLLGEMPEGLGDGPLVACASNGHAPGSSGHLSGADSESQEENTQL
Chain of Luciferin 4-monooxygenase (P08659 whole entry): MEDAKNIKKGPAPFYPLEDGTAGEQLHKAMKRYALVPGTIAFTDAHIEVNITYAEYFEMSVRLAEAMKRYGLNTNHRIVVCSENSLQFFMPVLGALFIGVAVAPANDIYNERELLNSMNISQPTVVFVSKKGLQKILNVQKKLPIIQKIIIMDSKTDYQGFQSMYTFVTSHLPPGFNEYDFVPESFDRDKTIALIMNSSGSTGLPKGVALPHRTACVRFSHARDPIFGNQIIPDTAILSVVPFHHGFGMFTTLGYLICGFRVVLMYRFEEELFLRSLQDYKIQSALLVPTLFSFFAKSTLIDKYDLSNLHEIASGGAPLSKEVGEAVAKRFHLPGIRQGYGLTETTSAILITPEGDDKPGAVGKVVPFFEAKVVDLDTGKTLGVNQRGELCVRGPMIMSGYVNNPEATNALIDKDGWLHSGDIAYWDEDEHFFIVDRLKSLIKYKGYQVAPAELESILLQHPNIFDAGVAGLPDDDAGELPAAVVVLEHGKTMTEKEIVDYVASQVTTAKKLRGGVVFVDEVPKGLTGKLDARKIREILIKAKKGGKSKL
Chain of Kallikrein-7 (P49862 whole entry): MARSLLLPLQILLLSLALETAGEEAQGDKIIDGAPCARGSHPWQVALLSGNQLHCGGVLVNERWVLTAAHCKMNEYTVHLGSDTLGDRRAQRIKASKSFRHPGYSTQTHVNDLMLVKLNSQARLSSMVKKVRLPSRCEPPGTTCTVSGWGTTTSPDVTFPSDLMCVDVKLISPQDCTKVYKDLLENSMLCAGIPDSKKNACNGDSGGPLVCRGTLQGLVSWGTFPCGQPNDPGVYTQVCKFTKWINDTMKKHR

CC1(C)CC(=O)C2=C(C1)c1c(ccc3ccccc13)NC2c1ccc(OCC(=O)O)cc1 (configuration not stated)
EC50 [1]: > 69.5 µM (inactive)

O=C(Nc1ccc2oc(-c3cccc4ccccc34)nc2c1)c1nc[nH]n1
IC50 [2]: 7.47 µM (active)
CC50 [3]: > 40 µM (active)
EC50 [4]: 5.42 µM (active)
EC50 [5]: 15.8 µM (active)
EC50 [6]: 0.627 µM (active)

c1ccc(-c2nnc(SCc3ccncc3)o2)cc1
IC90 [7]: 250 µM (active)
IC90 [8]: 31 µM (active)
IC90 [9]: 31 µM (active)

CCc1ccccc1NCc1ccc(N2CCCC2)cc1
AC50 [10]: 149 µM (active)

Cc1csc(NC(=O)c2ccc3ccccc3n2)n1
IC50 [11]: 16.2 µM (active)
IC50 [12]: 6.96 µM (active)
EC50 [13]: > 67.6 µM (inactive)
EC50 [14]: > 67.6 µM (inactive)
IC50 [15]: 5.25 µM (active)
IC50 [16]: 11 µM (active)
IC50 [17]: > 67.6 µM (inactive)

Nc1ncnc2c1ncn2[C@@H]1O[C@H](COP(=O)(O)O)[C@@H](O)[C@H]1O
IC50 [18]: 13.2 µM (inactive)
EC50 [19]: 1.48 µM (active)
IC50 [20]: > 122 µM (inactive)
EC50 [21]: 1.13 µM (active)

Cc1noc(C)c1S(=O)(=O)Nc1cccc2c1O[C@@H](CN(C)Cc1ccc(C(F)(F)F)cc1)[C@@H](C)CN([C@H](C)CO)C2=O
AC50 [22]: 18.6 µM (active)
AC50 [23]: > 70 µM (inactive)

O=C1C=C(Nc2ccc([N+](=O)[O-])c(C(F)(F)F)c2)C(=O)c2ccccc21
AC50 [24]: > 70 µM (inactive)
AC50 [25]: 8.56 µM (active)
AC50 [26]: > 70 µM (inactive)
AC50 [27]: 15.3 µM (active)
AC50 [28]: 27.7 µM (active)
AC50 [29]: 36.1 µM (active)
AC50 [30]: 1.06 µM (active)
AC50 [31]: 5.19 µM (active)
AC50 [32]: 27.7 µM (active)
